The results in this text go back to publication PMC10108353, “Design and Pharmacological Characterization of α4β1 Integrin Cyclopeptide Agonists: Computational Investigation of Ligand Determinants for Agonism versus Antagonism” (Journal of Medicinal Chemistry, 2023).

The target of one assay is αMβ2 integrin (Homo sapiens, UniProt P05107+P11215). Nature of the assay: Competitive solid-phase binding assay, purified αMβ2 / fibrinogen. Set-up: purchased R&D Systems. Particulars: read-out: Binding affinity IC50, αMβ2/Fg. As for the experimental part:
For the evaluation of binding affinity to purified α4β1, αMβ2, and α4β7 integrins, competitive solid-phase ligand binding assays were performed as follows. […] Afterward, each well was washed and blocked for 1 h at RT. Purified integrins (α4β1: 0.5 μg/mL; α4β7: 0.5 μg/mL; αMβ2: 0.5 μg/mL; R&D Systems) were preincubated with serial dilutions of new compounds (10^–4 – 10^–10 M) for 30 min at RT and then plated into coated wells for 1 h at RT. After two washes, primary antibody (for α4β1 and α4β7: rabbit anti-α4, Abcam, 1:100 dilution; for αMβ2: rabbit anti-αM, Abcam, 1:100 dilution) was added and incubated for 1 h at RT. The plate was washed twice and then was incubated with anti-rabbit AlexaFluor488 secondary antibody (1:400 dilution, ThermoFischer Scientific) for 1 h at RT. After washing three times, fluorescence was measured as described in the previous section.

For another assay, the target named is α5β1 integrin (Homo sapiens, UniProt P05556+P08648). Nature of the assay: K562 cell adhesion to FN.
The target of the next assay is α4β1 integrin (Homo sapiens, UniProt P05556+P13612). Kind of assay: Jurkat E6.1 cell adhesion to VCAM-1.
[1] abbreviates: agonist = adhesion index >1, antagonist = adhesion index <1.

Molecules are shown by their SMILES.

α5β1 integrin, sequence (P08648 42-894 limits assumed): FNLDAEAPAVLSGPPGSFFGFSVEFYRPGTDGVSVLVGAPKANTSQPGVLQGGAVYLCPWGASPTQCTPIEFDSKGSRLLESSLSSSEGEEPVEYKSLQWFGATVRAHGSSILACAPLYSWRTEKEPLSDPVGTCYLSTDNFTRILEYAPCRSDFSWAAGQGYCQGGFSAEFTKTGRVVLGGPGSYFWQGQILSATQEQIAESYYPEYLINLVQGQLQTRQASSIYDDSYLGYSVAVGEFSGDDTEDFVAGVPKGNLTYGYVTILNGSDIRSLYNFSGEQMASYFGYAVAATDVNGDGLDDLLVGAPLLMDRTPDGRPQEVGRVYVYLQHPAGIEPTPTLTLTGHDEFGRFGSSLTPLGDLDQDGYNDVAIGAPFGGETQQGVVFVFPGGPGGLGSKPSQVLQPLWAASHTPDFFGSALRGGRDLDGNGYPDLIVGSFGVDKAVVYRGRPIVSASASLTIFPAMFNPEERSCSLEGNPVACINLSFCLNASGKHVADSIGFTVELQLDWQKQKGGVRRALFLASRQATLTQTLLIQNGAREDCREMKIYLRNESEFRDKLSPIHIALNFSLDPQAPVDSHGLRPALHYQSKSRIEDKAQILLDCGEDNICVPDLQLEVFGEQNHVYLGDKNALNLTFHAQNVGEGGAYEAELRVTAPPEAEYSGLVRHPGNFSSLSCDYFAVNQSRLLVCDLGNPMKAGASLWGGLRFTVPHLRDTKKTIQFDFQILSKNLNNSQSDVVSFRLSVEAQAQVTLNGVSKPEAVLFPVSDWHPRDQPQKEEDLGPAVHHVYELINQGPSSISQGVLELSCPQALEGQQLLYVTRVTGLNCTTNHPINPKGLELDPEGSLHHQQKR
α5β1 integrin, sequence (P08648 895-1049 partner limits assumed): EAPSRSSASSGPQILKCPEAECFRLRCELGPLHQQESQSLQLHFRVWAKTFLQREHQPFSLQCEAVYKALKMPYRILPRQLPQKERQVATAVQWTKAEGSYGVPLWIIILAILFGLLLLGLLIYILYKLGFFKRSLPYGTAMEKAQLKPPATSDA
α5β1 integrin, sequence (P05556 21-798): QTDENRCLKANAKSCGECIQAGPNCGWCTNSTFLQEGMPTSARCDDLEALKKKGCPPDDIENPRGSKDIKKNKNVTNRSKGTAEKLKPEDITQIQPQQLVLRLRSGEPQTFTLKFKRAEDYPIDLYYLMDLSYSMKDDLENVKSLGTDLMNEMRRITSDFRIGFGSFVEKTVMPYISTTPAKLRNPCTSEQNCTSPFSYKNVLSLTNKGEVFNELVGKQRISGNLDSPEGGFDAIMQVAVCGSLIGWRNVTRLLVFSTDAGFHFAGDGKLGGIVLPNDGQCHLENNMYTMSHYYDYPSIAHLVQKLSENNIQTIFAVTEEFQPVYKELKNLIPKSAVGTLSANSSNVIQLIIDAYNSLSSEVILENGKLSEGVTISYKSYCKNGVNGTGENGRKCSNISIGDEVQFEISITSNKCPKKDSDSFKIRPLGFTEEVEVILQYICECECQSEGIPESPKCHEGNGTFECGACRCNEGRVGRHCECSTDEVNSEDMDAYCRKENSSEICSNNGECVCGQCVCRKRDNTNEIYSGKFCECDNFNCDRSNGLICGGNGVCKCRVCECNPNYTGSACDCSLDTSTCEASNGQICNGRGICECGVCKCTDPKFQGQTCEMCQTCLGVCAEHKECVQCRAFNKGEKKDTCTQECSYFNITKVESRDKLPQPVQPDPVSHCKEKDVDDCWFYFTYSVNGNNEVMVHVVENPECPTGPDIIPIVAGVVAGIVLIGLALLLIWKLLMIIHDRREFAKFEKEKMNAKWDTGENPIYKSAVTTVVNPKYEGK
α4β1 integrin, sequence (P13612 34-1032): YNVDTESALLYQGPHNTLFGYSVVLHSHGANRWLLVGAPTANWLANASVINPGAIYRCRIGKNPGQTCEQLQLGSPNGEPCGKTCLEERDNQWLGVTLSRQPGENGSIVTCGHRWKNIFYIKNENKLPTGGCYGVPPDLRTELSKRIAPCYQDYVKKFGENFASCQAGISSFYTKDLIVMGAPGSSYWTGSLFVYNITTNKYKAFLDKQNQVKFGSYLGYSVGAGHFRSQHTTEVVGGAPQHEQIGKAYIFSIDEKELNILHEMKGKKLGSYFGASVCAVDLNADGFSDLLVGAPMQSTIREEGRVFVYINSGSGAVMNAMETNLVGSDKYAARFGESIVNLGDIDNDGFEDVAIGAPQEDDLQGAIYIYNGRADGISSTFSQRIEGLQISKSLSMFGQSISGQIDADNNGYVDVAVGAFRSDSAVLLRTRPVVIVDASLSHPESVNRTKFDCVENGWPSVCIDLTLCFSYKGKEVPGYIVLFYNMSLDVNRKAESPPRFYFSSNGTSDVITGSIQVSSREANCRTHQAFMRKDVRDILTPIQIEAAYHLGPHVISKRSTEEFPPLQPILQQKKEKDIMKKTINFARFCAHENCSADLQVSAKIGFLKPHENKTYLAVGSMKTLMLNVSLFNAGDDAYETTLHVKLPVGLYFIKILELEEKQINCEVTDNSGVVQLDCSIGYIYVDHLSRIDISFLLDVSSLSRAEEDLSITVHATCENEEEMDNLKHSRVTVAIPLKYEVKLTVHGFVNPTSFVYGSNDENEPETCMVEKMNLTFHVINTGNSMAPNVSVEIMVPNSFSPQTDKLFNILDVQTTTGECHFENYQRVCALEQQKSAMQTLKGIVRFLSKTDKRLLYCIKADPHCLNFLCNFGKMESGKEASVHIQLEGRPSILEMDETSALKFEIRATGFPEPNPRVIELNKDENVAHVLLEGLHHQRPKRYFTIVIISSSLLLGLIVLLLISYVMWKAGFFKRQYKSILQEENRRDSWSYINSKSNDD
α4β1 integrin, sequence (P05556 21-798): as the sequence (P05556 21-798) above
αMβ2 integrin, sequence (P05107 23-700 limits assumed, other chains not shown): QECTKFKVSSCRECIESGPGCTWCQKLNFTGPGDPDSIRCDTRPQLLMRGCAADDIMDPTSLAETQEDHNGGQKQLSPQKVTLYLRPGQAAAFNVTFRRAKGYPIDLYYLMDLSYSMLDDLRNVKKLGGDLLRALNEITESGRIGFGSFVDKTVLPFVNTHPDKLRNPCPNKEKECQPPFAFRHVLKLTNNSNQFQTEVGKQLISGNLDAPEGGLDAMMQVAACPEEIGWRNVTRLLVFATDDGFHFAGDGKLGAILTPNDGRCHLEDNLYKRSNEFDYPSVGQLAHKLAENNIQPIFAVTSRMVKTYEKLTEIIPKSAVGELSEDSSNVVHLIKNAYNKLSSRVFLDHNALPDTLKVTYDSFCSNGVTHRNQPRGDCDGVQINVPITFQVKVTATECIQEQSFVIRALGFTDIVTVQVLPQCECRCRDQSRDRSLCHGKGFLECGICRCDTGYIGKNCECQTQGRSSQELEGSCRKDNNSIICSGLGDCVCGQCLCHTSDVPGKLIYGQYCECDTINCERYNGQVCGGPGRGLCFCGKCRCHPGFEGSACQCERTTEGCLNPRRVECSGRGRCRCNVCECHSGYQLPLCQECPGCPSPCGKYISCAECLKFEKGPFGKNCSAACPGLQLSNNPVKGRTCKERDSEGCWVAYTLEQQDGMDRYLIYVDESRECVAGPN
Procedure for α4β1 integrin: (§1) Cells were seeded in 96-well plates coated with the specific natural human recombinant ligands (Table 1) and allowed to adhere in the presence of increasing concentrations (10^–10 to 10^–4 M) of the synthesized CPPs before the determination of the number of adherent cells (as described in Experimental Section).
For adhesion assays on Jurkat E6.1, RPMI8866, or HL60 cells, black 96-well plates were coated overnight at 4 °C with VCAM-1 or ICAM-1 or MAdCAM-1 (5 μg/mL) or Fg (10 μg/mL). The cells were counted, stained with CellTracker green CMFDA (12.5 μM, 30 min at 37 °C, Life Technologies), and after three washes, were preincubated with increasing concentrations of new CPP (10^–10 to 10^–4 M) or with the vehicle (methanol) for 30 min at 37 °C. Then cells were plated (500 000/well) on coated wells and incubated for 30 min at 37 °C. After three washes, adhered cells were lysed with 0.5% Triton X-100 in PBS (30 min at 4 °C) and fluorescence was measured (Ex485 nm/Em535 nm) in an EnSpire Multimode Plate Reader (PerkinElmer, Waltham, MA). For adhesion assays mediated by α5β1 integrin, 96-well plates were coated by passive adsorption with FN (10 μg/mL) overnight at 4 °C. K562 cells were counted and preincubated with various concentrations of the peptides or with the vehicle (methanol) for 30 min at RT. Afterward, the cells were plated (50 000 cells/well) and incubated at RT for 1 h. The wells were then washed with 1% BSA in PBS (phosphate-buffered saline) to take off nonadherent cells, and 50 μL of hexosaminidase substrate was added; after addition of 100 μL of stopping solution, the plates were read at 405 nm. In both types of adhesion assay, the number of adherent cells was determined by comparison with a standard curve made in the same plate. Experiments were carried out in quadruplicate and repeated at least three times.
Jurkat E6.1 (expressing α4β1 and αLβ2 integrin), K562 (expressing α5β1 integrin) and HL60 (expressing αMβ2 integrin) cell lines were purchased from ATCC (Rockville, MD, USA); these cells were routinely cultured in RPMI-1640 (Life Technologies) supplemented with glutamine and 10% FBS.
Cells were grown at 37 °C under 5% CO2 humidified atmosphere.
Procedure for α5β1 integrin: as §1
For adhesion assays on Jurkat E6.1, RPMI8866, or HL60 cells, black 96-well plates were coated overnight at 4 °C with VCAM-1 or ICAM-1 or MAdCAM-1 (5 μg/mL) or Fg (10 μg/mL). The cells were counted, stained with CellTracker green CMFDA (12.5 μM, 30 min at 37 °C, Life Technologies), and after three washes, were preincubated with increasing concentrations of new CPP (10^–10 to 10^–4 M) or with the vehicle (methanol) for 30 min at 37 °C. […] After three washes, adhered cells were lysed with 0.5% Triton X-100 in PBS (30 min at 4 °C) and fluorescence was measured (Ex485 nm/Em535 nm) in an EnSpire Multimode Plate Reader (PerkinElmer, Waltham, MA). […] K562 cells were counted and preincubated with various concentrations of the peptides or with the vehicle (methanol) for 30 min at RT. […] The wells were then washed with 1% BSA in PBS (phosphate-buffered saline) to take off nonadherent cells, and 50 μL of hexosaminidase substrate was added; after addition of 100 μL of stopping solution, the plates were read at 405 nm. […]

On to `Cc1ccccc1NC(=O)N1C(=O)CC1CC(=O)NCC(=O)O` (stereo not drawn) [1b], for which the IC50 at αMβ2 integrin was above 5 µM. In addition, the “agonist or antagonist behaviour, FN/K562 α5β1” value at α5β1 integrin (setting [1]) is listed as “agonist”. In addition, the EC50 on α5β1 integrin (read-out: EC50 for agonists, FN/K562 α5β1, increase of cell adhesion, mean ± SD) was 0.0097 ± 0.0005 µM.
With `Cc1ccccc1NC(=O)N1C(=O)CC1CC(=O)O` (stereo not drawn) [1a], the “agonist or antagonist behaviour, VCAM-1/Jurkat E6.1 α4β1” value on α4β1 integrin (setting [1]) was “agonist”. Also, the EC50 on α4β1 integrin (read-out: EC50 for agonists, VCAM-1/Jurkat E6.1 α4β1, increase of cell adhesion, mean ± SD) stood at 0.013 ± 0.0008 µM. For the same compound, at αMβ2 integrin, the IC50 is above 5 µM.
